In patent publication US20150037253A1, “METAL COMPLEXES AS IMAGING AGENTS” (The University of Melbourne, priority 2011, published 2015):

Tests used:
[1] = Cyclic voltammetry, Cu(II)/Cu(I) reduction potential; format: physicochemical; details: vs. SCE, in DMF, glassy carbon electrode
Procedure: Cyclic voltammograms were recorded using an AUTOLAB PGSTAT100 equipped with GPES V4.9 software. Measurements of the complexes were carried out at approximately 1×10^−3 M in dimethylformamide with tetrabutylammonium tetrafluoroborate (1×10^−1 M) as electrolyte using a glassy carbon disk (d, 3 mm) working electrode, a Pt wire counter/auxiliary electrode, and a Ag/Ag^+ pseudo reference electrode (silver wire in H2O (KCl (0.1 M)) AgNO3 (0.01 M)). Ferrocene was used as an internal reference (Em(Fc/Fc^+)=0.54 V vs. SCE), where Em refers to the midpoint between a reversible reductive (Epc) and oxidative (Epa) couple, given by Em=(Epc+Epa)/2. Irreversible systems are only given reductive (Epc) and oxidative (Epa) values, respectively.

Aβ plaques = test: Fluorescence staining of human AD brain tissue sections, co-localisation with 1E8 immunostaining; format: binding; details: post-mortem AD human brain, 7 μm serial sections, BSA pre-treated
Source text: Fluorescence Staining of Human AD Brain. Tissues(^10) Paraffin preserved brain tissue blocks were provided by the Victoria Brain Bank Network. Brain tissue was collected at autopsy. The National Neural Tissue Resource Centre performed Sourcing and preparation of human brain tissue. AD pathologic diagnosis was made according to standard National Institute on Aging-Reagan Institute criteria. Determination of age-matched Human control (HC) cases was subject to the above criteria. The AD and HC brain tissues sections ([…]) were first de-paraffined (xylene, 3×2 min) followed by rehydration (soaking in a series of 100%, 90%, 70% and 0% v/v ethanol/di water). The hydrated tissue sections were washed in phosphate buffer saline (PBS, 5 min). Auto-fluorescence of the tissue was quenched using potassium permanganate (0.25% in PBS, 20 min) and washing with PBS (2×2 min) to remove the excess. […] Finally, the sections were washed with PBS (3×2 min), di water and mounted with non-fluorescent mounting media (Dako), Fluorescence images were visualised using a Leica (Bannockburn, Ill.) DM1RB microscope. […] The tissue was subsequently examined by fluorescent microscopy (epi-fluorescence, λex=420 nm, λex=470 nm) and compared to a sequential brain tissue cross section immunostained with an Aβ antibody (1 E8). […]

[2] = Partition coefficients (Log D) for 64Cu complexes; format: physicochemical; details: 64Cu complex of the listed ligand

With `CN=C([S-])N/N=C(C)/C(C)=N/NC([S-])=NC.[Cu+2]` [CuII (atsm)] the “reduction potential Em (Cu^II/Cu^I couple)” value [1] was −0.59 V.
With `CC(=N\NC(=S)NCCN(C)C)/C(C)=N/Nc1ccc(/C=C/c2ccc(N(C)C)cc2)cn1` [Example H2L3, Diacetyl-2-((E)-2-hydrazino-pyridinyl-4-(4′-N,N-dimethylaminostilbene))-(4-dimethylaminoethyl-3-thiosemicarbazone)] the “binding to Aβ plaques (co-localisation of epi-fluorescence with 1E8 antibody immunostaining)” value (Aβ plaques) was “binding selectively to Aβ plaques”.
In the case of `CNC(S)=NN=C(C)C(C)=NN=C(S)NC` [atsmH2a], the “Log D of complex” value [2] is reported as 1.48.
